Experimental data from US20260355196A1, “INHIBITORS AND DEGRADERS OF PIP4K PROTEIN” (Larkspur Biosciences, Inc., priority 2023, published 2026).

target: T1, PIP4K2C (Homo sapiens, UniProt Q8TBX8); test: HiBiT PIP4K2C degradation assay in MOLT-4 cells (endogenous PIP4K2C C-terminally tagged with HiBiT); assay type: cell-based; parameters: untagged in primary human PBMCs and monocyte-derived dendritic cells; details: 24 hours incubation, MOLT-4, top concentration 10 micromolar; read-out: HiBIT-degradation MOLT4 PIP4k2C 24 hours DC50
T1 sequence (Q8TBX8 1-421): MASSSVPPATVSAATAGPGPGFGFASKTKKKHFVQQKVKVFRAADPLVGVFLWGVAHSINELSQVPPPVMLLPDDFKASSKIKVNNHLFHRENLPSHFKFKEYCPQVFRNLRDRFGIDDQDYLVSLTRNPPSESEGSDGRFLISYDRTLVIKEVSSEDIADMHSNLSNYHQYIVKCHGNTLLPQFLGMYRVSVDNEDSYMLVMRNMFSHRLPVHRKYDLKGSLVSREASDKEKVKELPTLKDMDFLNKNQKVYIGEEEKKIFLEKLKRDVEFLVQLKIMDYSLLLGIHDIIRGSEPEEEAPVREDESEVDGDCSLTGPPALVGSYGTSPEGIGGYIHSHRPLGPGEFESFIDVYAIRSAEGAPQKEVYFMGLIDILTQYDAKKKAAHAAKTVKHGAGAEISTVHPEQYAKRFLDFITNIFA
In short: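 DC50 derived by Hill fit of luminescence from Nano-Glo HiBiT lytic detection. Cells were HiBiT knock-in MOLT-4 (C-terminal tag on endogenous PIP4K2C), exposed 6 h or 24 h at 37 C to compound, top concentration 10 micromolar, 3-fold steps, 10 points, duplicates.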

For `O=C1CCC(Nc2ccc(C3CCN(CC4CCN(CC(=O)N[C@H]5CC[C@H](Nc6ncc(F)c(-c7cccc(-n8ccccc8=O)c7)n6)CC5)CC4)CC3)c(F)c2)C(=O)N1` (stereo partly drawn) [Compound 313, trans-2-(4-((4-(4-((2,6-dioxopiperidin-3-yl)amino)-2-fluorophenyl)piperidin-1-yl)methyl)piperidin-1-yl)-N-(4-((5-fluoro-4-(3-(2-oxopyridin-1(2H)-yl)phenyl)pyrimidin-2-yl)amino)cyclohexyl)acetamide], which DC50 is on record?
Its DC50 is under 500 nM.

With `O=C1CCC(Nc2ccc(C3CCN(CC4CCN(CC(=O)N5CCC(Nc6ncc(F)c(-c7cccc(-n8ccccc8=O)c7)n6)CC5)CC4)CC3)c(F)c2)C(=O)N1` (centres unmarked) [Compound 314, 3-((3-fluoro-4-(1-((1-(2-(4-((5-fluoro-4-(3-(2-oxopyridin-1(2H)-yl)phenyl)pyrimidin-2-yl)amino)piperidin-1-yl)-2-oxoethyl)piperidin-4-yl)methyl)piperidin-4-yl)phenyl)amino)piperidine-2,6-dione] as the compound, how does the DC50 read?
Its DC50 is under 500 nM.

With `Cn1nc(C2CCC(=O)NC2=O)c2ccc(C3CCN(CC4CCN(CC(=O)N5CCC(Nc6ncc(F)c(-c7cccc(-n8ccccc8=O)c7)n6)CC5)CC4)CC3)cc21` (centres unmarked) [Compound 315, 3-(6-(1-((1-(2-(4-((5-fluoro-4-(3-(2-oxopyridin-1(2H)-yl)phenyl)pyrimidin-2-yl)amino)piperidin-1-yl)-2-oxoethyl)piperidin-4-yl)methyl)piperidin-4-yl)-1-methyl-1H-indazol-3-yl)piperidine-2,6-dione] as the compound, how does the DC50 read?
The DC50 was under 500 nM.

Which DC50 does the source give for `O=C1CCC(Nc2ccc(N3CCC(CCN4CCC(C(=O)N[C@H]5CC[C@H](Nc6ncc(F)c(-c7cccc(-n8ccccc8=O)c7)n6)CC5)CC4)CC3)c(F)c2)C(=O)N1` (stereo partly drawn) [Compound 316, trans-1-[2-[1-[4-[(2,6-dioxo-3-piperidyl)amino]-2-fluoro-phenyl]-4-piperidyl]ethyl]-N-[4-[[5-fluoro-4-[3-(2-oxo-1-pyridyl)phenyl]pyrimidin-2-yl]amino]cyclohexyl]piperidine-4-carboxamide] here?
The DC50 was under 500 nM.

With `O=C1CCC(n2c(=O)oc3cc(N4CCC(N5CCC(C(=O)N[C@H]6CC[C@H](Nc7ncc(F)c(-c8cccc(-n9ccccc9=O)c8)n7)CC6)CC5)CC4)ccc32)C(=O)N1` (stereo partly drawn) [Compound 317, trans-1′-(3-(2,6-dioxopiperidin-3-yl)-2-oxo-2,3-dihydrobenzo[d]oxazol-6-yl)-N-(4-((5-fluoro-4-(3-(2-oxopyridin-1(2H)-yl)phenyl)pyrimidin-2-yl)amino)cyclohexyl)-[1,4′-bipiperidine]-4-carboxamide] as the compound, how does the DC50 read?
Its DC50 is under 500 nM.

With `O=C1CCC(Nc2ccc(C3CCN(CC4CCN(C(=O)[C@H]5CC[C@H](Nc6ncc(F)c(-c7cccc(-n8ccccc8=O)c7)n6)CC5)CC4)CC3)c(F)c2)C(=O)N1` (stereo partly drawn) [Compound 318, trans-3-((3-fluoro-4-(1-((1-(4-((5-fluoro-4-(3-(2-oxopyridin-1(2H)-yl)phenyl)pyrimidin-2-yl)amino)cyclohexane-1-carbonyl)piperidin-4-yl)methyl)piperidin-4-yl)phenyl)amino)piperidine-2,6-dione] as the compound, how does the DC50 read?
Its DC50 is under 500 nM.

`O=C1CCC(Nc2ccc(N3CCN([C@H]4CC[C@H](C(=O)N[C@H]5CC[C@H](Nc6ncc(F)c(-c7cccc(-n8ccccc8=O)c7)n6)CC5)CC4)CC3)c(F)c2)C(=O)N1` (stereo partly drawn) [Compound 319, trans-trans-4-(4-(4-((2,6-dioxopiperidin-3-yl)amino)-2-fluorophenyl)piperazin-1-yl)-N-(4-((5-fluoro-4-(3-(2-oxopyridin-1(2H)-yl)phenyl)pyrimidin-2-yl)amino)cyclohexyl)cyclohexane-1-carboxamide] was tested. Which DC50 did it give?
The DC50 was under 500 nM.

Which DC50 does the source give for `O=C1CCC(n2c(=O)oc3cc(C4CCN(CCC5CCN(C(=O)[C@H]6CC[C@H](Nc7ncc(F)c(-c8cccc(-n9ccccc9=O)c8)n7)CC6)CC5)CC4)ccc32)C(=O)N1` (stereo partly drawn) [Compound 321, trans-3-(6-(1-(2-(1-(4-((5-fluoro-4-(3-(2-oxopyridin-1(2H)-yl)phenyl)pyrimidin-2-yl)amino)cyclohexane-1-carbonyl)piperidin-4-yl)ethyl)piperidin-4-yl)-2-oxobenzo[d]oxazol-3 (2H)-yl)piperidine-2,6-dione] here?
Its DC50 is under 500 nM.

For `O=C1CCC(Nc2ccc(C3CCN(CCC4CCN(C(=O)[C@H]5CC[C@H](Nc6ncc(F)c(-c7cccc(-n8ccccc8=O)c7)n6)CC5)CC4)CC3)c(F)c2)C(=O)N1` (stereo partly drawn) [Compound 322, trans-3-((3-fluoro-4-(1-(2-(1-((1r,4r)-4-((5-fluoro-4-(3-(2-oxopyridin-1(2H)-yl)phenyl)pyrimidin-2-yl)amino)cyclohexane-1-carbonyl)piperidin-4-yl)ethyl)piperidin-4-yl)phenyl)amino)piperidine-2,6-dione], which DC50 is on record?
Its DC50 is under 500 nM.

`O=C1CCC(n2c(=O)oc3cc(C4CCN(CC5CCN(C(=O)[C@H]6CC[C@H](Nc7ncc(F)c(-c8cccc(-n9ccccc9=O)c8)n7)CC6)CC5)CC4)ccc32)C(=O)N1` (stereo partly drawn) [Compound 323, trans-3-(6-(1-((1-(4-((5-fluoro-4-(3-(2-oxopyridin-1(2H)-yl)phenyl)pyrimidin-2-yl)amino)cyclohexane-1-carbonyl)piperidin-4-yl)methyl)piperidin-4-yl)-2-oxobenzo[d]oxazol-3 (2H)-yl)piperidine-2,6-dione] was tested. Which DC50 did it give?
Its DC50 is under 500 nM.

`O=C1CCC(n2c(=O)oc3cc(C4CCN(CCC5CCN(C(=O)[C@H]6C[C@@H](Nc7ncc(F)c(-c8cccc(-n9ccccc9=O)c8)n7)C6)CC5)CC4)ccc32)C(=O)N1` (stereo partly drawn) [Compound 325, cis-3-(6-(1-(2-(1-(3-((5-fluoro-4-(3-(2-oxopyridin-1(2H)-yl)phenyl)pyrimidin-2-yl)amino)cyclobutane-1-carbonyl)piperidin-4-yl)ethyl)piperidin-4-yl)-2-oxobenzo[d]oxazol-3 (2H)-yl)piperidine-2,6-dione] was tested. Which DC50 did it give?
The DC50 was under 500 nM.

For `O=C1CCC(Nc2ccc(N3CCN(CC4CCN(CC(=O)N[C@H]5CC[C@H](Nc6ncc(F)c(-c7cccc(-n8ccccc8=O)c7)n6)CC5)CC4)CC3)c(F)c2)C(=O)N1` (stereo partly drawn) [Compound 326, trans-2-(4-((4-(4-((2,6-dioxopiperidin-3-yl)amino)-2-fluorophenyl)piperazin-1-yl)methyl)piperidin-1-yl)-N-(4-((5-fluoro-4-(3-(2-oxopyridin-1(2H)-yl)phenyl)pyrimidin-2-yl)amino)cyclohexyl)acetamide], which DC50 is on record?
The DC50 was under 500 nM.

`O=C1CCC(Nc2ccc(N3CCC(CN4CCN(CC(=O)N[C@H]5CC[C@H](Nc6ncc(F)c(-c7cccc(-n8ccccc8=O)c7)n6)CC5)CC4)CC3)c(F)c2)C(=O)N1` (stereo partly drawn) [Compound 327, trans-2-[4-[[1-[4-[(2,6-dioxo-3-piperidyl)amino]-2-fluoro-phenyl]-4-piperidyl]methyl]piperazin-1-yl]-N-[4-[[5-fluoro-4-[3-(2-oxo-1-pyridyl)phenyl]pyrimidin-2-yl]amino]cyclohexyl]acetamide] was tested. Which DC50 did it give?
Its DC50 is under 500 nM.

With `O=C1CCC(n2c(=O)oc3cc(N4CCC(CCN5CCC(C(=O)N[C@H]6CC[C@H](Nc7ncc(F)c(-c8cccc(-n9ccccc9=O)c8)n7)CC6)CC5)CC4)ccc32)C(=O)N1` (stereo partly drawn) [Compound 329, trans-1-[2-[1-[3-(2,6-dioxo-3-piperidyl)-2-oxo-1,3-benzoxazol-6-yl]-4-piperidyl]ethyl]-N-[4-[[5-fluoro-4-[3-(2-oxo-1-pyridyl)phenyl]pyrimidin-2-yl]amino]cyclohexyl]piperidine-4-carboxamide] as the compound, how does the DC50 read?
Its DC50 is 1000 to 5000 nM.

`O=C1CCC(n2c(=O)oc3cc(N4CCC(CCN5CCC(C(=O)N6CCC(Nc7ncc(F)c(-c8cccc(-n9ccccc9=O)c8)n7)CC6)CC5)CC4)ccc32)C(=O)N1` (centres unmarked) [Compound 330, 3-[6-[4-[2-[4-[4-[[5-fluoro-4-[3-(2-oxo-1-pyridyl)phenyl]pyrimidin-2-yl]amino]piperidine-1-carbonyl]-1-piperidyl]ethyl]-1-piperidyl]-2-oxo-1,3-benzoxazol-3-yl]piperidine-2,6-dione] was tested. Which DC50 did it give?
Its DC50 is under 500 nM.

`O=C1CCC(n2c(=O)oc3cc(C4CCN(CC(=O)N5CCC(O)(C(=O)N6CCC(Nc7ncc(F)c(-c8cccc(-n9ccccc9=O)c8)n7)CC6)CC5)CC4)ccc32)C(=O)N1` (centres unmarked) [Compound 331, 3-(6-(1-(2-(4-(4-((5-fluoro-4-(3-(2-oxopyridin-1(2H)-yl)phenyl)pyrimidin-2-yl)amino)piperidine-1-carbonyl)-4-hydroxypiperidin-1-yl)-2-oxoethyl)piperidin-4-yl)-2-oxobenzo[d]oxazol-3 (2H)-yl)piperidine-2,6-dione] was tested. Which DC50 did it give?
The DC50 was under 500 nM.

same assay, conditions: read-out: HiBIT-degradation MOLT4 PIP4k2C 24 hours DC50; 24 hours incubation, MOLT-4, top concentration 10 micromolar

`O=C1CCC(Nc2ccc(C3CCN(C4CCN(CCC(=O)N[C@H]5CC[C@H](Nc6ncc(F)c(-c7cccc(-n8ccccc8=O)c7)n6)CC5)CC4)CC3)c(F)c2)C(=O)N1` (stereo partly drawn) [Compound 328, trans-3-(4-(4-((2,6-dioxopiperidin-3-yl)amino)-2-fluorophenyl)-[1,4′-bipiperidin]-1′-yl)-N-(4-((5-fluoro-4-(3-(2-oxopyridin-1(2H)-yl)phenyl)pyrimidin-2-yl)amino)cyclohexyl)propanamide] was tested. Which DC50 did it give?
The DC50 was under 500 nM.
